The values that follow come from ChEMBL document CHEMBL5620376, “Design, synthesis and anti-NASH effect evaluation of novel GFT505 derivatives in vitro and in vivo” (Eur J Med Chem, 2023).

Data set [1] deals with HepG2. Briefly: Cytotoxicity against human HepG2 cells assessed as inhibition of cell proliferation at 20 to 80 micromol/L incubated for 24 hrs by MTT assay. The class given is functional, cell-based. To be noted: dose 20-80 µmol/L.
Data set [2] concerns HepG2. Briefly: Anti-NASH activity in free fatty acid-induced nonalcoholic steatohepatitis model in human HepG2 cells assessed as reduction in intracellular triglyceride level measured per mg of protein at 40 micromol/L incubated for 24 hrs. The class given is functional, cell-based. To be noted: dose 40.0 µmol/L.
For data set [3], the system named is HepG2. Briefly: Anti-NASH activity in free fatty acid-induced nonalcoholic steatohepatitis model in human HepG2 cells assessed as reduction in intracellular lipid accumulation at 40 micromol/L incubated for 24 hrs by Oil Red O/ Hematoxylin staining based analysis. The class given is functional, cell-based. To be noted: dose 40.0 µmol/L.
The test system of data set [4] is Mus musculus. Nature of the data set: Anti-NASH activity in MCD diet-induced nonalcoholic steatohepatitis C57BL/6 mouse assessed as reduction in triglyceride level in serum at 30 mg/kg,po administrated for 28 days. Format: functional. To be noted: time 28 day.
The test system of data set [5] is Mus musculus. Nature of the data set: Anti-NASH activity in MCD diet-induced nonalcoholic steatohepatitis C57BL/6 mouse assessed as decrease in serum LDL level at 3 to 30 mg/kg,po administrated for 28 days. The class given is functional, organism-based. To be noted: dose 3-30 mg/kg, time 28.0 day.
Data set [6] deals with Mus musculus. Nature of the data set: Anti-NASH activity in MCD diet-induced nonalcoholic steatohepatitis C57BL/6 mouse assessed as decrease in serum IL-8 level at 3 to 30 mg/kg,po administrated for 28 days. Format: functional, organism-based. To be noted: dose 3-30 mg/kg, time 28.0 day.
Data set [7] has as its system Mus musculus. Briefly: Anti-NASH activity in MCD diet-induced nonalcoholic steatohepatitis C57BL/6 mouse assessed as reduction in triglyceride level in serum at 10 mg/kg,po administrated for 28 days. The class given is functional. The following applies: time 28 day.
Data set [8] concerns Mus musculus. Nature of the data set: Anti-NASH activity in MCD diet-induced nonalcoholic steatohepatitis C57BL/6 mouse assessed as decrease in serum IL-6 level at 3 to 30 mg/kg,po administrated for 28 days. Format: functional, organism-based. The following applies: dose 3-30 mg/kg, time 28.0 day.
For data set [9], the system named is Mus musculus. Nature of the data set: Anti-NASH activity in MCD diet-induced nonalcoholic steatohepatitis C57BL/6 mouse assessed as decrease in serum ALT activity at 30 mg/kg,po administrated for 28 days. The class given is functional, organism-based. To be noted: time 28.0 day.
For data set [10], the system named is Mus musculus. Briefly: Anti-NASH activity in MCD diet-induced nonalcoholic steatohepatitis C57BL/6 mouse assessed as decrease in serum TNF-alpha level at 3 to 30 mg/kg,po administrated for 28 days. Format: functional, organism-based. The following applies: dose 3-30 mg/kg, time 28.0 day.
Data set [11] is described as follows: Hepatotoxicity in MCD diet-induced C57BL/6 mouse assessed as reduction in liver index at 3 to 30 mg/kg,po administrated for 4 weeks by hematoxylin and eosin staining based microscopic analysis. Format: toxicity, organism-based. To be noted: in vivo, 672 h, dose 3-30 mg/kg.
Data set [12] relates to Mus musculus. Briefly: Anti-NASH activity in MCD diet-induced nonalcoholic steatohepatitis C57BL/6 mouse assessed as decrease in serum AST activity at 3 to 30 mg/kg,po administrated for 28 days. The following applies: dose 3-30 mg/kg, time 28.0 day. The class given is functional, organism-based.
The test system of data set [13] is HepG2. Briefly: Anti-NASH activity in free fatty acid-induced nonalcoholic steatohepatitis model in human HepG2 cells assessed as reduction in AST activity at 40 micromol/L incubated for 24 hrs. Format: functional. The following applies: dose 40 µmol/L.
The test system of data set [14] is Mus musculus. Nature of the data set: Anti-NASH activity in MCD diet-induced nonalcoholic steatohepatitis C57BL/6 mouse assessed as increase in liver GSH level at 3 to 30 mg/kg,po administrated for 28 days. The class given is functional, organism-based. To be noted: dose 3-30 mg/kg, time 28.0 day.
For data set [15], the system named is Mus musculus. Nature of the data set: Anti-NASH activity in MCD diet-induced nonalcoholic steatohepatitis C57BL/6 mouse assessed as decrease in serum ALT activity at 10 mg/kg,po administrated for 28 days. To be noted: time 28.0 day. The class given is functional, organism-based.
The subject of data set [16] is Mus musculus. Nature of the data set: Anti-NASH activity in MCD diet-induced nonalcoholic steatohepatitis C57BL/6 mouse assessed as reduction in total cholesterol level in serum at 3 to 30 mg/kg,po administrated for 28 days. To be noted: dose 3-30 mg/kg, time 28.0 day. Format: functional, organism-based.
Data set [17] concerns Mus musculus. Nature of the data set: Anti-NASH activity in MCD diet-induced nonalcoholic steatohepatitis C57BL/6 mouse assessed as reduction in triglyceride level in serum at 3 mg/kg,po administrated for 28 days. Format: functional, organism-based. To be noted: time 28.0 day.
In data set [18] the test system is Mus musculus. Nature of the data set: Anti-NASH activity in MCD diet-induced nonalcoholic steatohepatitis C57BL/6 mouse assessed as increase in serum HDL level at 3 to 30 mg/kg,po administrated for 28 days. Format: functional, organism-based. To be noted: dose 3-30 mg/kg, time 28.0 day.
Data set [19] deals with Mus musculus. Nature of the data set: Anti-NASH activity in MCD diet-induced nonalcoholic steatohepatitis C57BL/6 mouse assessed as reduction in triglyceride level in serum at 3 mg/kg,po administrated […]. The class given is functional.
Data set [20] has as its system Mus musculus. Briefly: Anti-NASH activity in MCD diet-induced nonalcoholic steatohepatitis C57BL/6 mouse assessed as decrease in serum IL-6 level at 100 mg/kg,po administrated for 28 days. The class given is functional, organism-based. The following applies: time 28.0 day.
Data set [21] relates to Mus musculus. Nature of the data set: Anti-NASH activity in MCD diet-induced nonalcoholic steatohepatitis C57BL/6 mouse assessed as decrease in serum LDL level at 100 mg/kg,po administrated for 28 days. Format: functional, organism-based. To be noted: time 28.0 day.
Data set [22] deals with HepG2. Briefly: Anti-NASH activity in free fatty acid-induced nonalcoholic steatohepatitis model in human HepG2 cells assessed as reduction in intracellular triglyceride level measured per mg of protein at 100 micromol/L incubated for 24 hrs. The class given is functional. The following applies: dose 100 µmol/L.
Data set [23] has as its system Mus musculus. Nature of the data set: Anti-NASH activity in MCD diet-induced nonalcoholic steatohepatitis C57BL/6 mouse assessed as reduction in triglyceride level in serum at 100 mg/kg,po administrated for 28 days. Format: functional, organism-based. To be noted: time 28.0 day.
In data set [24] the test system is Mus musculus. Briefly: Anti-NASH activity in MCD diet-induced nonalcoholic steatohepatitis C57BL/6 mouse assessed as increase in serum HDL level at 100 mg/kg,po administrated for 28 days. Format: functional, organism-based. To be noted: time 28.0 day.
In data set [25] the test system is Mus musculus. Briefly: Anti-NASH activity in MCD diet-induced nonalcoholic steatohepatitis C57BL/6 mouse assessed as decrease in serum TNF-alpha level at 100 mg/kg,po administrated for 28 days. The class given is functional, organism-based. The following applies: time 28.0 day.
Data set [26] has as its system Mus musculus. Briefly: Anti-NASH activity in MCD diet-induced nonalcoholic steatohepatitis C57BL/6 mouse assessed as decrease in serum ALT activity at 100 mg/kg,po administrated for 28 days. The class given is functional, organism-based. The following applies: time 28.0 day.
The subject of data set [27] is HepG2. Briefly: Anti-NASH activity in free fatty acid-induced nonalcoholic steatohepatitis model in human HepG2 cells assessed as reduction in AST activity at 100 micromol/L incubated for 24 hrs. The following applies: dose 100 µmol/L. The class given is functional.
Data set [28] relates to Mus musculus. Nature of the data set: Anti-NASH activity in MCD diet-induced nonalcoholic steatohepatitis C57BL/6 mouse assessed as decrease in serum AST activity at 100 mg/kg,po administrated for 28 days. Format: functional, organism-based. To be noted: time 28.0 day.
In data set [29] the test system is HepG2. Nature of the data set: Anti-NASH activity in free fatty acid-induced nonalcoholic steatohepatitis model in human HepG2 cells assessed as reduction in intracellular lipid accumulation at 100 micromol/L incubated for 24 hrs by Oil Red O/ Hematoxylin staining based analysis. The class given is functional, cell-based. The following applies: dose 100.0 µmol/L.

Data set [30] has as its system Mus musculus. Nature of the data set: Anti-NASH activity in MCD diet-induced nonalcoholic steatohepatitis C57BL/6 mouse assessed as increase in liver GSH level at 100 mg/kg,po administrated for 28 days. The following applies: time 28.0 day. The class given is functional, organism-based.
The nature of data set [31]: Hepatotoxicity in MCD diet-induced C57BL/6 mouse assessed as reduction in liver index at 100 mg/kg,po administrated for 4 weeks by hematoxylin and eosin staining based microscopic analysis. Format: toxicity, organism-based. To be noted: in vivo, 672 h.
Data set [32] relates to Mus musculus. Briefly: Anti-NASH activity in MCD diet-induced nonalcoholic steatohepatitis C57BL/6 mouse assessed as increase in liver GSH level at 30 mg/kg,po administrated for 28 days. The following applies: time 28 day. Format: functional.
The subject of data set [33] is Mus musculus. Nature of the data set: Anti-NASH activity in MCD diet-induced nonalcoholic steatohepatitis C57BL/6 mouse assessed as reduction in triglyceride level in serum at 3 to 30 mg/kg,po administrated for 28 days. The following applies: dose 3-30 mg/kg, time 28.0 day. Format: functional, organism-based.

The source made the active and inactive calls. The rule behind the calls is not given here.

For `Cc1cc(/C=C/C(=O)c2ccc(N(C)C)cc2)cc(C)c1OC(C)(C)C(=O)O`, the result in data set [1] was inactive. In addition, the outcome in data set [2] and in data set [3] was Active.
Turning to `CSc1ccc(C(=O)/C=C/c2cc(C)c(OC(C)(C)C(=O)O)c(C)c2)cc1` [ELAFIBRANOR], the Activity is 0.53 mmol/L in data set [4]; 0.69 mmol/L in data set [7]; “Toxic” in [11]; 18.31 U/g in [13]; 0.64 mmol/L in data set [19]. In addition, the result in [5], in [1], in [2], in data set [6], in [8] and in data set [3] was Active. Further, the outcome in data set [9], in data set [10], in data set [12], in data set [14], in data set [15] and in data set [16] was Active. Also, the result in data set [18] was Active. The outcome in data set [17] was inactive.
Regarding `C[Se]c1ccc(C(=O)/C=C/c2cc(C)c(OC(C)(C)C(=O)O)c(C)c2)cc1`, the result in [1], in data set [2] and in data set [3] was Active.
In the case of `C[Se]c1ccc(C(=O)/C=C/c2cc(C)c(OC(C)(C)C(=O)OC(C)(C)C)c(C)c2)cc1`, the result in [1] was inactive. In addition, the result in data set [2] and in data set [3] was Active.
For `COc1ccc(C(=O)/C=C/c2cc(C)c(OC(C)(C)C(=O)OC(C)(C)C)c(C)c2)cc1`, in data set [1], the outcome was inactive. Further, the result in data set [2] and in [3] was Active.
Take `Cc1cc(/C=C/C(=O)c2ccc(N(C)C)cc2)cc(C)c1OC(C)(C)C(=O)OC(C)(C)C`: the result in data set [1], in data set [2] and in data set [3] was inactive.
Turning to `CC(C)OC(=O)C(C)(C)Oc1ccc(C(=O)c2ccc(Cl)cc2)cc1` [FENOFIBRATE], the outcome in data set [20], in [21], in [23], in data set [24], in data set [25] and in [26] was Active. Moreover, the outcome in data set [28], in data set [29] and in [30] was Active. In addition, the Activity in [22] is 0.15 mmol; in data set [27], 19.78 U/g; in data set [31], “Toxic”.
On to `Cc1cc(/C=C/C(=O)c2ccc(N(C)Cc3ccccc3)cc2)cc(C)c1OC(C)(C)C(=O)OC(C)(C)C`, for which the result in [1] was inactive. Further, the outcome in [2] and in data set [3] was Active.
Regarding `CSc1ccc(C(=O)/C=C/c2cc(C)c(OC(C)(C)C(=O)OC(C)(C)C)c(C)c2)cc1`, in data set [1], the result was inactive. The result in data set [2] and in [3] was Active.
`CNc1ccc(C(=O)/C=C/c2cc(C)c(OC(C)(C)C(=O)O)c(C)c2)cc1`: the result in data set [1], in data set [2] and in data set [3] was inactive.
Take `COc1ccc(C(=O)/C=C/c2cc(C)c(OC(C)(C)C(=O)O)c(C)c2)cc1`: the outcome in [1], in data set [2] and in data set [3] was Active.
As for `CNc1ccc(C(=O)/C=C/c2cc(C)c(OC(C)(C)C(=O)OC(C)(C)C)c(C)c2)cc1`, the outcome in data set [5], in [2], in data set [6], in [8], in data set [3] and in data set [9] was Active. In addition, the result in [10], in [12], in data set [14], in [15], in [16] and in [33] was Active. Besides, the result in data set [18] was Active. The result in data set [1] was inactive. In addition, the figures for the Activity in data set [32], in data set [11] and in [13] were 47.8 µmol/g, “Non-Toxic” and 18.65 U/g, respectively.
Turning to `Cc1cc(/C=C/C(=O)c2ccc(N(C)Cc3ccccc3)cc2)cc(C)c1OC(C)(C)C(=O)O`, the result in data set [1] was inactive. In addition, the result in [2] and in data set [3] was Active.
